This is an account of results in patent publication US6369225B1, “Compounds having activity as inhibitors of cytochrome P450RAI” (Allergan Sales, Inc., priority 2000, dated 2002).

Data set [1] addresses T1, RARγ (Homo sapiens, UniProt P13631).
T1 sequence (P13631 185-419 limits assumed): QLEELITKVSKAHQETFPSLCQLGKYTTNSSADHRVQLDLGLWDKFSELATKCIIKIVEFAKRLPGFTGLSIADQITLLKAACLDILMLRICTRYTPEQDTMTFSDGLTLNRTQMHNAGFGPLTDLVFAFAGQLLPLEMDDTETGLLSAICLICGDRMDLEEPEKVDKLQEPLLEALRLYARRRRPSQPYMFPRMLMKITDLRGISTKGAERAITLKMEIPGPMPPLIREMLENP
The data set is described as follows: chimeric receptor transactivation assay, RARγ. It is filed as cell-based. As to conditions: EC50 line of EC50/(EFFICACY)/Kd, read-out: RAR EC50 γ. An excerpt:
(§1) Assays described below measure the ability of a compound to bind to, and/or activate various retinoid receptor subtypes. When in these assays a compound binds to a given receptor subtype and activates the transcription of a reporter gene through that subtype, then the compound is considered an agonist of that receptor subtype. […] In the below described assays the ability of the compounds to bind to RARα, RARβ, RARγ, RXRα, RXRβ and RXRγ receptors, and the ability or inability of the compounds to activate transcription of a reporter gene through these receptor subtypes can be tested.
(§2) As far as specific assays are concerned, a chimeric receptor transactivation assay which tests for agonist-like activity in the RARα, RARβ, AND RARγ, receptor subtypes, and which is based on work published by Feigner P. L. and Holm M. (1989) Focus, 112 is described in detail in U.S. Pat. No. 5,455,265. The specification of U.S. Pat. No. 5,455,265 is hereby expressly incorporated by reference. The numeric results obtained with several preferred compounds of this invention in this assay are shown below in Table 1.

Data set [2] deals with T2, RARγ (Homo sapiens, UniProt P13631).
T2 sequence (P13631 1-454): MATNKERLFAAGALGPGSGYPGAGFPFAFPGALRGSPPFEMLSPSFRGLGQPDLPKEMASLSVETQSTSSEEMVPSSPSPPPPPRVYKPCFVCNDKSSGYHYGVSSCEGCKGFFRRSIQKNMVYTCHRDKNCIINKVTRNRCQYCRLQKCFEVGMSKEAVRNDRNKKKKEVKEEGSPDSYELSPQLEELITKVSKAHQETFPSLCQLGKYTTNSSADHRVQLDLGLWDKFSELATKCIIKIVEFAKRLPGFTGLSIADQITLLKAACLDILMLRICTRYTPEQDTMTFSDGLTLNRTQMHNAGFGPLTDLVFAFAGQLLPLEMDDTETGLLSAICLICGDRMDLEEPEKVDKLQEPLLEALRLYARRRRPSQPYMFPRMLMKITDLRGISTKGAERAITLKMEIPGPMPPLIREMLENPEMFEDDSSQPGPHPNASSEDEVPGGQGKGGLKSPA
The data set can be described thus: ligand binding assay, RARγ. As to conditions: Kd line of EC50/(EFFICACY)/Kd, read-out: RAR Kd γ.

Data set [3] deals with T3, RARα (Homo sapiens, UniProt P10276).
T3 sequence (P10276 1-462): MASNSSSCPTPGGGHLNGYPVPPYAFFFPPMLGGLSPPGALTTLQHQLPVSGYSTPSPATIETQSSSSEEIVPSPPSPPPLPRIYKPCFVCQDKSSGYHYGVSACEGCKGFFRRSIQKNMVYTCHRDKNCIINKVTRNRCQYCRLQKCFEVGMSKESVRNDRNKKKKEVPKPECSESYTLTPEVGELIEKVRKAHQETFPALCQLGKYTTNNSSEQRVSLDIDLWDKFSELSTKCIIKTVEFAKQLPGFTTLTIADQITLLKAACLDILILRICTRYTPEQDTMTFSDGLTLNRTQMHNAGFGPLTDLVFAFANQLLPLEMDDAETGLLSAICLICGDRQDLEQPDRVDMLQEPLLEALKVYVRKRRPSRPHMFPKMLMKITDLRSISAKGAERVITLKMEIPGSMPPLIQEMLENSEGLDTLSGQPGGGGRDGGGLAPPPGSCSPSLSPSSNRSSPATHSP
The data set can be described thus: ligand binding assay, RARα. The note with it: Kd line of EC50/(EFFICACY)/Kd, read-out: RAR Kd α.

Another data set deals with skin of hairless mice. The data set can be described thus: topical skin irritation test in hairless mice. It is filed as in vivo, mouse. The note with it: topical in acetone, once daily days 1 through 5, mean ±SD, range 0-21. The text has this:
Mice were housed individually throughout the dosing period.
Doses are disclosed as nmol/25 g.
The grading scale used is as follows:
Values can range from 0-9.
Values can range from 0-8.

The target of data set [4] is T4, RARα (Homo sapiens, UniProt P10276).
T4 sequence (P10276 183-462 limits assumed): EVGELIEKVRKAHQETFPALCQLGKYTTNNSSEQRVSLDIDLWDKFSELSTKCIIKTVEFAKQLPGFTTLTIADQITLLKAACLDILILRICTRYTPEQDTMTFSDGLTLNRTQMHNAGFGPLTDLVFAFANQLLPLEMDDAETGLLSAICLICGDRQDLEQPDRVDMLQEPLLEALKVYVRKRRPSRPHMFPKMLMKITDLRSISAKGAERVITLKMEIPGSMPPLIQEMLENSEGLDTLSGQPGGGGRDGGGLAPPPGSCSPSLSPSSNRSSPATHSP
The data set can be described thus: chimeric receptor transactivation assay, RARα. It is filed as cell-based. As to conditions: EC50 line of EC50/(EFFICACY)/Kd, read-out: RAR EC50 α.
Excerpt: as §1, §2

The structures appear in SMILES notation.

Turning to `Cc1cc(C#Cc2ccc(C(=O)O)cc2)ccc1C1(OCc2ccccc2)CC1` [Compound 81, 4-[4-(1-Benzyloxycyclopropyl)-3-methyl-phenylethynyl]-benzoic Acid], the concentration giving a half-maximal response (EC50) at RARγ [1] is 183 nM. Further, the results for the dissociation constant (Kd) on RARγ [2] and on RARα [3] were 1060 nM and 4210 nM, respectively.

For the compound `CC(C)OC1(c2ccc(C#Cc3ccc(C(=O)O)cc3)cc2)CC1` [Compound 73, 4-[4-(1-Isopropoxycyclopropyl)-phenylethynyl]-benzoic Acid], the 50% effective concentration (EC50) on RARγ [1] is 91 nM. The Kd was determined as 351 nM on RARγ [2] and 486 nM at RARα [3].

In the case of `CC1(C)CCC(=O)c2ccc(C#Cc3ccc(CC(=O)O)cc3)cc21` [Compound 5, 4-[(8,8-Dimethyl-5-oxo-5,6,7,8-tetrahydro-naphthalene-2-yl-ethynyl)-phenyl]-acetic Acid], the “Cutaneous Toxicity Score (Blackjack Score)” value in the data set on skin of hairless mice (100 nmole (nmol/25 g)) stood at 0; with skin of hairless mice (1000 nmole (nmol/25 g)) it was 6 ± 3. Moreover, the Kd was greater than 10000 nM at RARγ [2] and 9150 nM on RARα [3].

Take `CC1(C)CC2(CC2)Oc2ccc(C#Cc3ccc(C(=O)O)cc3)cc21` [Compound 40, Benzoic Acid, 4-[(3,4-dihydro-4,4-dimethylspiro[2H-1-benzopyran-2,1′-cyclopropane]-6-yl)ethynyl]-]: the figures for the EC50 at RARγ [1] and on RARα [4] were 6.8 nM and 33 nM, respectively. Moreover, the Kd amounted to 363 nM on RARγ [2] and 69 nM on RARα [3].

For the compound `Cc1cc(C#Cc2ccc(C(=O)O)cc2)ccc1C1(OC(C)C)CC1` [Compound 85, 4-[4-(1-Isopropoxycyclopropyl)-3-methyl-phenylethynyl]-benzoic Acid], the EC50 at RARγ [1] was 2.5 nM; on RARα [4], 976 nM. Besides, the dissociation constant (Kd) amounted to 302 nM at RARγ [2] and 1860 nM at RARα [3].

As for `CN(C1CC1)C1CCC(C)(C)c2cc(C#Cc3ccc(CC(=O)O)cc3)ccc21` (stereo not drawn) [Compound 8, 4-[(5-(Cyclopropyl-methyl-amino)-8,8-dimethyl-5,6,7,8-tetrahydro-naphthalene-2-yl-ethynyl)-phenyl]-acetic Acid], the “Cutaneous Toxicity Score (Blackjack Score)” value with skin of hairless mice (100 nmole (nmol/25 g)) is given as 5 ± 2; in the data set with skin of hairless mice (300 nmole (nmol/25 g)), 8 ± 3; in the data set on skin of hairless mice (1000 nmole (nmol/25 g)) it was 12 ± 1. Further, on RARγ [2], the Kd came out at 25000 nM.

Turning to `CCCN(CCC)C1(c2ccc(C#Cc3ccc(C(=O)O)cc3)cc2)CC1` [Compound 110, 4-[4-(1-Dipropylamino-cyclopropyl)-phenylethynyl]-benzoic Acid], the EC50 on RARγ [1] stood at 262 nM. The Kd is less than 10000 nM at RARγ [2] and 2060 nM at RARα [3].

As for `CCc1cc(C#Cc2ccc(C(=O)O)cc2)ccc1C1(OCc2ccccc2)CC1` [Compound 93, 4-[4-(1-Benzyloxycyclopropyl)-3-ethyl-phenylethynyl]-benzoic Acid], the figures for the EC50 at RARγ [1] and on RARα [4] were 10 nM and 4820 nM, respectively. The Kd on RARγ [2] worked out at 358 nM; on RARα [3], 3450 nM.

For the compound `COC1(c2ccc(C#Cc3ccc(C(=O)O)cc3)cc2)CC1` [Compound 69, 4-[4-(1-Methoxycyclopropyl)-phenylethynyl]-benzoic Acid], the values for the half-maximal effective concentration (EC50) at RARγ [1] and on RARα [4] were 52.6 nM and 313 nM, respectively. The Kd on RARγ [2] stood at 501 nM; on RARα [3], 469 nM.

As to `Cc1cc(C#Cc2ccc(C(=O)O)cc2)ccc1C1(OCC(C)(C)C)CC1` [Compound 89, 4-[4-[1-(2,2-Dimethylpropyloxy)-cyclopropyl]-3-methyl-phenylethynyl]-benzoic Acid], the EC50 on RARγ [1] was 12 nM; at RARα [4] it was 268 nM. The results for the dissociation constant Kd at RARγ [2] and at RARα [3] were 475 nM and 3410 nM, respectively.

`CN(C1CC1)C1CCC(C)(C)c2cc(C#Cc3ccc(C(=O)O)cc3)ccc21` (stereo not drawn) [Compound 3, 4-[(5-Cyclopropyl-methyl-amino)-8,8-dimethyl-5,6,7,8-tetrahydro-naphthalene-2yl-ethynyl]-benzoic Acid]: the EC50 was determined as 9.8 nM on RARγ [1] and 280 nM at RARα [4]. Also, the Kd on RARγ [2] stood at 158 nM; at RARα [3], 145 nM.

As for `CC1(C)CC2(CC2)Oc2ccc(C#Cc3ccc(C(=O)O)c(F)c3)cc21` [Compound 44, 2-Fluoro-benzoic Acid, 4-[(3,4-dihydro-4,4-dimethylspiro[2H-1-benzopyran-2,1′-cyclopropane]-6-yl)ethynyl]-], the EC50 was 7.5 nM at RARγ [1] and 49 nM on RARα [4]. In addition, the Kd at RARγ [2] was determined as 392 nM; on RARα [3] it was 37 nM.

In the case of `O=C(O)c1ccc(C#Cc2ccc(C3(NCc4ccccc4)CC3)cc2)cc1` [Compound 112, 4-[4-(1-Benzylamino-cyclopropyl)-phenylethynyl]-benzoic Acid], the Kd on RARγ [2] amounted to 685 nM; on RARα [3], 5850 nM.

For the compound `CCCNC1(c2ccc(C#Cc3ccc(C(=O)O)cc3)cc2)CC1` [Compound 108, 4-[4-(1-Propylamino-cyclopropyl)-phenylethynyl]-benzoic Acid], the concentration giving a half-maximal response (EC50) on RARγ [1] came out at 141 nM; at RARα [4], 6.6 nM. Also, the figures for the dissociation constant (Kd) at RARγ [2] and on RARα [3] were 13000 nM and 21000 nM, respectively.

One may read the EC50 as the concentration at which the effect is half-maximal. What is called Kd is a measure of binding affinity in units of concentration.
